In article PMC12517324, “Hyperagonism of a Vitamin D Receptor Agonist/Histone Deacetylase Inhibitor Hybrid Molecule” (Journal of Medicinal Chemistry, 2025):

Test system: B16–F10 cells
Assay: RNaseq gene expression profiling;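 as to logFC Ak4: Hybrid compounds tested at 10 µM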;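 as to logFC Cck: Hybrid compounds tested at 10 µM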;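 as to logFC Cited1: Hybrid compounds tested at 10 µM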;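 as to logFC Gpd1: Hybrid compounds tested at 10 µM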;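 as to logFC Mgll: Hybrid compounds tested at 10 µM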;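 as to logFC Nr4a3: Hybrid compounds tested at 10 µM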;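 as to logFC Rnf145: Hybrid compounds tested at 10 µM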;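 as to logFC Rpia: Hybrid compounds tested at 10 µM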;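 as to logFC Sema7a: Hybrid compounds tested at 10 µM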;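 as to logFC Snrpd1: Hybrid compounds tested at 10 µM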;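 as to logFC Spc24: Hybrid compounds tested at 10 µM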;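 as to logFC Tk1: Hybrid compounds tested at 10 µM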;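 as to logFC Tonsl: Hybrid compounds tested at 10 µM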;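 as to logFC Tpi1: Hybrid compounds tested at 10 µM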;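 as to logFC Ugdh: Hybrid compounds tested at 10 µM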
Format: cell-based, mouse
Description: AC-340 superinduced CYP24A1 expression in all cell lines tested, and ZG-126 appeared to be a hyperagonist in SK-MEL-28 cells. […] AC-340 treatment produced 3 times more differentially expressed genes (DEGs) than AM-193, with ZG-126 producing an intermediate number (Figure A). […] The varying effects of each treatment on the numbers of regulated genes and the fold changes observed are reflected in plots of log-fold changes and volcano plots (Figure S3B).
A quality control was performed before sequencing in paired-end at 50 M reads by Illumina NovaSeq 6000 S4 PE100. After sequencing, the FASTQ files were sent to us and all downstream analysis were performed on Galaxy (Galaxy (usegalaxy.org)). First, trimmomatic tool was used to remove the adapters from the reads. Then, using the alignment tool, HISAT2, the reads were mapped to the mouse genome. In the next step, the counted reads were annotated and finally the list of differentially expressed genes (DEGs) for each treatment was obtained using the preinstalled R package called Limma.

CCC(CC)(c1ccc(OCCCCCC(=O)NO)cc1)c1ccc(OCC(O)C(C)(C)C)c(C)n1 (stereo not shown) [AM-193]
logFC Rnf145 (RNAseq, gene Rnf145, AM193-significant genes): -0.7842
logFC Rpia (RNAseq, gene Rpia, AM193-significant genes): -0.7096
logFC Samd1 (RNAseq, gene Samd1, AM193-significant genes): -0.798
logFC Selenbp1 (RNAseq, gene Selenbp1, AM193-significant genes): -1.012
logFC Sema7a (RNAseq, gene Sema7a, AM193-significant genes): -0.8174
logFC Sfxn2 (RNAseq, gene Sfxn2, AM193-significant genes): -0.9624
logFC Sigmar1 (RNAseq, gene Sigmar1, AM193-significant genes): -0.7437
logFC Sik1 (RNAseq, gene Sik1, AM193-significant genes): -0.7218
logFC Ska3 (RNAseq, gene Ska3, AM193-significant genes): -0.7116
logFC Slc2a1 (RNAseq, gene Slc2a1, AM193-significant genes): -1.04
logFC Slc37a4 (RNAseq, gene Slc37a4, AM193-significant genes): -0.9222
logFC Slc39a10 (RNAseq, gene Slc39a10, AM193-significant genes): -0.7848
logFC Snrpa1 (RNAseq, gene Snrpa1, AM193-significant genes): -1.002
logFC Snrpd1 (RNAseq, gene Snrpd1, AM193-significant genes): -0.7702
logFC Spc24 (RNAseq, gene Spc24, AM193-significant genes): -0.7364
logFC Srm (RNAseq, gene Srm, AM193-significant genes): -1.055
logFC Tarbp1 (RNAseq, gene Tarbp1, AM193-significant genes): -0.7191
logFC Tbl2 (RNAseq, gene Tbl2, AM193-significant genes): -0.8635
logFC Tet1 (RNAseq, gene Tet1, AM193-significant genes): -0.8944
logFC Tfap4 (RNAseq, gene Tfap4, AM193-significant genes): -1.016
logFC Tinagl1 (RNAseq, gene Tinagl1, AM193-significant genes): -0.9151
logFC Tk1 (RNAseq, gene Tk1, AM193-significant genes): -0.987
logFC Tonsl (RNAseq, gene Tonsl, AM193-significant genes): -0.711
logFC Tpi1 (RNAseq, gene Tpi1, AM193-significant genes): -0.895
logFC Trip13 (RNAseq, gene Trip13, AM193-significant genes): -0.8647
logFC Trmt61a (RNAseq, gene Trmt61a, AM193-significant genes): -0.7832
logFC Trpm1 (RNAseq, gene Trpm1, AM193-significant genes): -0.743
logFC Ttk (RNAseq, gene Ttk, AM193-significant genes): -0.8273
logFC Uba7 (RNAseq, gene Uba7, AM193-significant genes): -0.9636
logFC Ugdh (RNAseq, gene Ugdh, AM193-significant genes): -0.8794
logFC Ugp2 (RNAseq, gene Ugp2, AM193-significant genes): -0.7144
logFC Uhrf1 (RNAseq, gene Uhrf1, AM193-significant genes): -0.8121
logFC Xrcc3 (RNAseq, gene Xrcc3, AM193-significant genes): -0.7656
logFC Abca12 (RNaseq, B16–F10 cells, gene Abca12 (ATP-binding cassette, sub-family A (ABC1), member 12), sheet AM193-significant genes): -1.21
logFC Ak4 (RNaseq, B16–F10 cells, gene Ak4 (adenylate kinase 4), sheet AM193-significant genes): -1.909
logFC Bnip3 (RNaseq, B16–F10 cells, gene Bnip3 (BCL2/adenovirus E1B interacting protein 3), sheet AM193-significant genes): -1.2222
logFC Cck (RNaseq, B16–F10 cells, gene Cck (cholecystokinin), sheet AM193-significant genes): -1.792
logFC Cited1 (RNaseq, B16–F10 cells, gene Cited1 (Cbp/p300-interacting transactivator with Glu/Asp-rich carboxy-terminal domain 1), sheet AM193-significant genes): -1.397
logFC Dna2 (RNaseq, B16–F10 cells, gene Dna2 (DNA replication helicase/nuclease 2), sheet AM193-significant genes): -1.157
logFC Gpd1 (RNaseq, B16–F10 cells, gene Gpd1 (glycerol-3-phosphate dehydrogenase 1 (soluble)), sheet AM193-significant genes): -1.351
logFC H2bc12 (RNaseq, B16–F10 cells, gene H2bc12 (H2B clustered histone 12), sheet AM193-significant genes): -1.307
logFC H3c8 (RNaseq, B16–F10 cells, gene H3c8 (H3 clustered histone 8), sheet AM193-significant genes): -1.15
logFC Hk2 (RNaseq, B16–F10 cells, gene Hk2 (hexokinase 2), sheet AM193-significant genes): -1.284
logFC Kit (RNaseq, B16–F10 cells, gene Kit (KIT proto-oncogene receptor tyrosine kinase), sheet AM193-significant genes): -2.0666
logFC Lpar5 (RNaseq, B16–F10 cells, gene Lpar5 (lysophosphatidic acid receptor 5), sheet AM193-significant genes): -1.721
logFC Megf6 (RNaseq, B16–F10 cells, gene Megf6 (multiple EGF-like-domains 6), sheet AM193-significant genes): -1.186
logFC Mgll (RNaseq, B16–F10 cells, gene Mgll (monoglyceride lipase), sheet AM193-significant genes): -1.2265
logFC Mknk2 (RNaseq, B16–F10 cells, gene Mknk2 (MAP kinase-interacting serine/threonine kinase 2), sheet AM193-significant genes): -1.156
logFC Nr4a3 (RNaseq, B16–F10 cells, gene Nr4a3 (nuclear receptor subfamily 4, group A, member 3), sheet AM193-significant genes): -2.364
logFC Oas2 (RNaseq, B16–F10 cells, gene Oas2 (2'-5' oligoadenylate synthetase 2), sheet AM193-significant genes): -1.532
logFC Pafah1b3 (RNaseq, B16–F10 cells, gene Pafah1b3 (platelet-activating factor acetylhydrolase, isoform 1b, subunit 3), sheet AM193-significant genes): -1.354
logFC Pdk1 (RNaseq, B16–F10 cells, gene Pdk1 (pyruvate dehydrogenase kinase, isoenzyme 1), sheet AM193-significant genes): -1.253
logFC Sapcd2 (RNaseq, B16–F10 cells, gene Sapcd2 (suppressor APC domain containing 2), sheet AM193-significant genes): -1.167
logFC Slc16a3 (RNaseq, B16–F10 cells, gene Slc16a3 (solute carrier family 16 (monocarboxylic acid transporters), member 3), sheet AM193-significant genes): -1.321
logFC (gene 1700019D03Rik): 1.314
logFC (gene 4930455G09Rik): 1.641
logFC (gene Abca8b): 1.273
logFC (gene Abcd2): 4.745
logFC (gene Adamts7): 1.528
logFC (gene Adamtsl5): 1.436
logFC (gene Adssl1): 1.51
logFC (gene Afap1l2): 1.64
logFC (gene Akna): 1.375
logFC (gene Aldh1l2): 1.268
logFC (gene Ankrd23): 1.409
logFC (gene Asns): 1.391
logFC (gene Atp1b2): 1.2305
logFC (gene Atp2b4): 1.278
logFC (gene Atp8b3): 1.445
logFC (gene Bmf): 1.318
logFC (gene C1s1): 1.363
logFC (gene Cacng7): 1.328
logFC (gene Car11): 1.215
logFC (gene Cebpb): 1.421
logFC (gene Chn1): 1.21
logFC (gene Cnn2): 1.571
logFC (gene Col20a1): 1.535
logFC (gene Csdc2): 1.317
logFC (gene Cth): 1.456
logFC (gene Ctsf): 1.525
logFC (gene Cyb5r2): 1.681
logFC (gene Dagla): 1.633
logFC (gene Dbp): 1.36
logFC (gene Ddr2): 1.2413
logFC (gene Dgat1): 1.203
logFC (gene Dgka): 1.571
logFC (gene Dglucy): 1.251
logFC (gene Eef2k): 1.203
logFC (gene Efhd1): 5.014
logFC (gene Ehd3): 1.292
logFC (gene Fam83f): 1.352
logFC (gene Fam178b): 1.456
logFC (gene Fbxo2): 1.302
logFC (gene Fbxo41): 1.469
logFC (gene Fry): 1.598
logFC (gene Fstl1): 1.467
logFC (gene Gjc3): 1.602
logFC (gene Gli1): 1.6149
logFC (gene Glipr2): 1.645
logFC (gene Gm19705): 1.68
logFC (gene Gpr158): 1.296
logFC (gene Gpr162): 1.524
logFC (gene Gstm7): 1.44
logFC (gene Heg1): 1.713
logFC (gene Hid1): 1.246
logFC (gene Hoga1): 1.608
logFC (gene Hrc): 1.3608
logFC (gene Id3): 1.638
logFC (gene Inpp5e): 1.325
logFC (gene Itga8): 1.267
logFC (gene Jam2): 1.325
logFC (gene Kif9): 1.315
logFC (gene Lrrc75b): 1.346
logFC (gene Lrtm2): 4.986
logFC (gene Ltbp4): 1.39
logFC (gene Mettl27): 1.2162
logFC (gene Mmp11): 1.398
logFC (gene Mmp28): 4.741
logFC (gene Mxd4): 1.4725
logFC (gene Nccrp1): 5.249
logFC (gene Neurl3): 1.34
logFC (gene Notch1): 1.541
logFC (gene Notch3): 1.442
logFC (gene Nova2): 1.445
logFC (gene Nupr1): 1.537
logFC (gene Nwd1): 1.316
logFC (gene Pcdh1): 1.75
logFC (gene Pck2): 1.456
logFC (gene Pdlim2): 1.539
logFC (gene Phlda3): 1.237
logFC (gene Phyhd1): 1.588
logFC (gene Pierce2): 1.323
logFC (gene Plk2): 1.532
logFC (gene Prelp): 5.529
logFC (gene Prox1): 1.361
logFC (gene Ptges): 4.4154
logFC (gene Reck): 1.669
logFC (gene Rom1): 1.351
logFC (gene Scamp1): 1.346
logFC (gene Scube3): 1.291
logFC (gene Serpinb9b): 1.695
logFC (gene Shank1): 1.222
logFC (gene Slc17a7): 1.733
logFC (gene Slc25a35): 1.406
logFC (gene Slc25a42): 1.347
logFC (gene Slc43a2): 1.207
logFC (gene Sparc): 1.263
logFC (gene Spn): 1.262
logFC (gene Sync): 1.481
logFC (gene Syt7): 1.364
logFC (gene Trnp1): 1.3245
logFC (gene Vdr): 5.618
logFC (gene Wnt10a): 4.9613
logFC (gene Zfr2): 1.286
